Assay results: a melting point compilation (Tetko et al.; mined from patent text by program, amines drawn as free bases though some values may be those of a salt)

| SMILES | melting point |
| --- | --- |
| COc1cccc2c1OC(C)C2=O (stereo not given) | 60 to 61 °C |
| Cc1cc(C)cc(Sc2c(C(C)C)c(=O)[nH]c(=O)n2CC2=CC(CO)C(CO)C2)c1 (stereo not given) | 136 to 137 °C |
| COc1ccc2c(c1)C(C(=O)O)CCC2 (stereo not given) | 126 to 127 °C |
| CC(C)Cn1c(=O)n(C)c(=O)c2nc(-c3ccc(/C=C/C(=O)O)cc3)[nH]c21 | > 300 °C |
| COc1ccccc1N1CCN(C(=O)Nc2cc3ccccc3nc2OC)CC1 | 159 to 161 °C |
| Nc1nc2c(ncn2CC(CO)CCO)c(=O)[nH]1 (stereo not given) | 235 °C |
| CCCCCCCNC(=O)N(C)c1cccc(-c2ccc(CCC(=O)NO)cc2)c1 | 100 to 101 °C |
| CC(C)Oc1ccc(CCCOc2cc(CCC(=O)O)n(-c3ccccc3)n2)c(Oc2ccc(Cl)cc2Cl)n1 | 60 to 62 °C |
| N#CCCNC(=S)C1=CC(CF)(CF)Oc2ccc(C(F)(F)C(F)(F)F)cc21 | 108 to 109 °C |
| N#CCCn1cccc1C1=CC(=O)c2ncccc2C1=O | 166 to 167 °C |
| Cc1sc(S(=O)(=O)NC(C)(C)CO)cc1[N+](=O)[O-] | 118 °C |
| CCNP(=O)(Cc1ccc(NC(=O)C2=Cc3cc(C4CCCCC4)ccc3CC2)cc1)NCC | 163 to 165 °C |
| N#Cc1ccc(-c2ccc(O)c(C(=O)O)c2)cc1 | 227 °C |
| CC(Br)C(=O)NS(=O)(=O)c1ccc2c(c1)CC(C)(C)O2 (stereo not given) | 125 to 128 °C |
| CCCn1nc2c(N)nc3ccccc3c2c1NCCC1CCN(C(=O)NC(C)C)CC1 | 168 to 170 °C |
| CCOC(=O)C1=C(C)N(C(C)=O)C(c2csc(C)n2)=NC1C1(F)C=CC=CC1Cl (stereo not given) | 164 to 166 °C |
| CC1(C)OC(=C(C#N)C#N)C(C#N)=C1/C=C/c1ccc([N+](=O)[O-])cc1 | 281 °C |
| COc1cccc(-c2ccc3c(c2)C(C)(C)OC(=S)N3)c1 | 142 to 143 °C |
| Cc1nc2c(N)nc3ccccc3c2n1CCCNC(=O)OC(C)(C)C | 112 to 115 °C |
| CN(C)CCc1c[nH]c2cc(N(S(=O)(=O)c3cc(Cl)cc(Cl)c3)S(=O)(=O)c3cc(Cl)cc(Cl)c3)ccc12 | 103 to 107 °C |
| COC(=O)c1cc([N+](=O)[O-])cc(-c2ccc(NC(=O)OC(C)(C)C)cc2)c1C | 131 to 132 °C |
| CCOCc1cc(N2C(=O)C3=C(CCCC3)C2=O)c(F)cc1Cl | 89 to 91 °C |
| N#CCN1C(=O)C2(COc3cc4c(cc32)OCCO4)c2ccccc21 (stereo not given) | 161 to 162 °C |
| COc1cc(Nc2c(C#N)cnc3cc(Br)c(OC)cc23)c(Cl)cc1Cl | > 250 °C |
| O=c1c(CCCc2ccncc2)cc2cccnc2n1-c1ccc(Cl)c([N+](=O)[O-])c1 | 136 to 137 °C |

| SMILES | melting point |
| --- | --- |
| CN(C)Cc1ccc2cc(C(=O)Nc3ccc(-c4ccc(Cl)cc4)cc3)ccc2c1 | 240 to 242 °C |
| COC(=O)c1cc(-c2ccc(OC)c(F)c2)nn(CC2CC2)c1=O | 114 to 117 °C |
| NC(=O)CNC(=O)COc1ccccc1 | 138 to 140 °C |
| O=C(O)c1cc(O)c2c3c(cc(Br)c2n1)S(=O)c1ccccc1-3 (stereo not given) | 289 to 290 °C |
| CC(C)c1cc(OCCOCc2ccccc2)cc2c1C(=O)N(CSc1ccccc1)S2(=O)=O | 98 to 99 °C |
| CC(CC(=O)Nc1c(Cl)ccc2nc(CCCNCCCO)ccc12)c1ccccc1 (stereo not given) | 118 to 120 °C |
| CS(=O)(=O)N1CCSc2cccc(Cl)c2C1 | 85 to 86 °C |
| COc1ccc(C(=O)N[C@@H]2CCc3cccc(N4CCN(C)CC4)c3C2)cc1 | 186 to 187 °C |
| COc1ncccc1-c1cc(F)c(F)c(OC2SCC(O)C(O)C2O)c1 (stereo not given) | 127 °C |
| CCN(CC)c1ccc(Nc2ncc3ccc(=O)n(CC)c3n2)cc1 | 108 to 109 °C |
| O=C(c1ccc2c(c1)OC(c1cccc(Cl)c1)(c1cccc(Cl)c1)O2)N1CCCCC1 | 54 °C |
| Cc1nnc2n1-c1sc(C#CCn3c(=O)c4c(ncn4C)n(C)c3=O)cc1C(c1ccccc1Cl)=NC2 | 277 to 280 °C |
| Fc1ccc2c(C3=CCN(CC4CCc5ccccc5O4)CC3)c[nH]c2c1 (stereo not given) | 160 to 161 °C |
| COC(=O)C1CCC2ON=C(c3ccc(Cl)cc3)C2CC1 (stereo not given) | 150 to 185 °C |
| CC(=O)c1ccc(Cl)cn1 | 58 to 65 °C |
| O=C1N(Cc2ccc(C(F)(F)F)o2)c2ccc(F)cc2C1(CO)c1cc2c(cc1O)OCO2 (stereo not given) | 92 to 95 °C |
| CCOP(=O)(/C=C/c1cn(-c2ccccc2)nc1OCc1ccc(OCc2nc(-c3ccco3)oc2C)c(C(=O)O)c1)OCC | 169 to 170 °C |
| CCCCCCCCc1cnc(-c2ccc(F)cc2)nc1 | 23.5 °C |
| COc1cccc(Nc2n[nH]c3ncnc(Nc4cccc(Cl)c4)c23)c1 | 202 to 203 °C |
| Cc1ccccc1C(=O)Nc1ccc(C(=O)N2CCc3cn(C)nc3-c3sccc32)cc1 | 257 to 260 °C |
| CCCCCCCCCCCCCCCCCCOc1ccc(C(=O)C=Cc2ccc(SC)cc2)cc1 | 104 °C |
| Cc1ccc(N2CCN(CCCCc3ccc(C4CCC(=O)N4)cc3)CC2)cc1 (stereo not given) | 164 to 165 °C |
| COC(c1ccc(Cl)c2nc3n(c12)CCCN3c1ccc(Cl)cc1Cl)C(F)(F)F (stereo not given) | 161 to 163 °C |
| CC(C)(C)OC(=O)N1CC2CC(CN(CC(O)COc3ccc(C(C)(C)C)cc3)C2)C1 (stereo not given) | 75 to 77 °C |
| CC1(C)Cc2sccc2C(=O)N1 | 153 to 154 °C |

| SMILES | melting point |
| --- | --- |
| CC(C)(CC(=O)O)CC(=O)N[C@H](Cc1ccc(-c2ccccc2)cc1)C(=O)NCCCCNc1ncccn1 | 77 to 95 °C |
| O=C(O)CCNC(=O)C(CS)Cc1ccccc1 (stereo not given) | 76 to 82 °C |
| CCc1noc(-c2cn(-c3c[nH]c4ccccc34)cn2)n1 | 198 to 199 °C |
| CCNC1CCN(c2c(F)cc3c(=O)c(C(=O)O)cn(C4CC4)c3c2C)CC1(C)C (stereo not given) | 201 to 203 °C |
| NC(=O)N(O)CCn1cc(Sc2ccccc2)c2ccccc21 | 95 to 99 °C |
| Cc1cccc(N(C)c2n[nH]c3ncnc(Nc4cccc(Cl)c4)c23)n1 | 231 to 233 °C |
| COc1cc2c(cc1OC)C(CNC(=O)N(C)O)CC2 (stereo not given) | 120 to 121 °C |
| COc1ccc(CNc2c(Cl)cnn(-c3ccccc3)c2=O)cc1 | 125 to 126 °C |
| O=C(Nc1ccc(Br)cc1)c1cc2ccccc2o1 | 178 to 180 °C |
| COC(=O)c1cnc(S)n1Cc1cc(F)cc(F)c1 | 177 to 178 °C |
| CS(=O)(=O)Nc1c(CC(=O)O)cccc1Oc1ccccc1Cl | 159 to 163 °C |
| CC(C)Cn1c(=O)n(C)c(=O)c2c(SC(C)C)c(Cn3cnc4ccccc43)sc21 | 195 °C |
| CC1(C)OC(=O)C(Br)(CCn2cccc2C(=O)c2ccccc2)C(=O)O1 | 89 to 91 °C |
| CC(C)COC(=O)C1(F)C(=O)NC(=O)NC1O/N=C\c1ccco1 (stereo not given) | 159 to 160 °C |
| CCNC(=O)C=CC(C)=CC=C(C)c1ccc2c(c1)C(C)(C)CCC2(C)C | 150 to 159 °C |
| CCOC(=O)C1=C2NCCN2C(C)=C(C(C)=O)C1c1cccc([N+](=O)[O-])c1 (stereo not given) | 155 °C |
| COc1ccc(Nc2nc(NC(C)C)nc(Oc3ccccc3C#CC(C)(C)O)n2)cc1Cl | 138 to 140 °C |
| CC(=NO)c1ccnc(C)c1 | 151 to 152 °C |
| COC(=N)Nc1nc(Cl)cc(Cl)n1 | 178 °C |
| COc1cccc2c1C[C@@H](NC=O)CC2 | 140 to 141 °C |
| Cc1nc(N)c(N)cc1Cl | 128 to 130 °C |
| Cc1nn(-c2ccccc2)c(=O)c2c1c1c(Br)cccc1n2C | 189 to 190 °C |
| COC(=O)[C@H](Cc1c(Br)n(Cc2ccccc2)c2cc(Br)c(OC)c(Br)c12)NC(C)=O | 226 to 227 °C |
| CCCCCCCc1c(C(=O)OCC)[nH]c(C)c1C | 68 to 69 °C |
| COc1ccc(C(=O)O)cc1OC1CCSC1 (stereo not given) | 177 to 179 °C |

| SMILES | melting point |
| --- | --- |
| N#Cc1c(Cl)[nH]c(-c2ccc(Cl)c(Cl)c2)c1Cl | > 200 °C |
| CN(c1cc(OCC(=O)O)cc2cc(C3=NCC(CN4CCSCC4)S3)[nH]c12)S(=O)(=O)c1ccccn1 (stereo not given) | 132 to 134 °C |
| CNC(Cc1ccccc1)c1nc(C(=O)NCc2ccccc2)no1 (stereo not given) | 128 °C |
| CC(=NO)C1=CCCN(Cc2ccccc2)C1 | 103 to 105 °C |
| COc1ccc(-c2ccc(C(=O)Nc3ccc4cc(CN5CCCCCC5)cnc4c3C)cc2F)cc1 | 160 to 161 °C |
| CCc1ccc(NS(=O)(=O)c2ccc(N3CCNC3=O)cc2)cc1 | 195 to 196 °C |
| CC1(C)CC(N(C=O)CCc2ccccc2)CC(C)(C)N1 | 86 °C |
| CCn1cc(N(C)S(=O)(=O)c2cccs2)c2[nH]c(C3=NCCS3)cc21 | 163 °C |
| CCC1Cc2ccc([N+](=O)[O-])cc2C=N1 (stereo not given) | 61 to 62 °C |
| CC(C)(C)OC(=O)CN(C(=O)CN1C(=O)c2ccccc2C1=O)c1ccccc1C(=O)N1CCCc2ccccc21 | 150 °C |
| CCOC(=O)C=C(C)c1ccc(-c2ccc(Cl)cc2)cc1 | 91 to 94 °C |
| Cc1oc(-c2ccccc2)nc1COc1ccc(Cc2nc(CCC(=O)O)c(-c3ccccc3)s2)cc1 | 119 to 120 °C |
| CN(C)C=C1CN=C(c2ccccc2)c2cc(Cl)ccc2C1=O | 179 to 180 °C |
| CCOC(=O)c1cn(C2CC2)c2nc3cc(Cl)c(F)cc3cc2c1=O | 256 °C |
| CN(C)C(=S)n1cnc(S(=O)(=O)CC2CCCC2)n1 | 65 °C |
| O=C(Nc1ccc2c(c1)C(=O)c1cc(NC(=O)c3ccccc3)ccc1C2=O)c1ccccc1 | 224 °C |
| OCCC1CC2CCN1CC2 (stereo not given) | 62 to 64 °C |
| CNC(=O)c1cccc(Nc2ncnc3[nH]cc(C(=O)c4cccc(F)c4)c23)c1 | > 300 °C |
| CC1(C)OC(=O)N(Cc2ccccc2[N+](=O)[O-])C1=O | 134 °C |
| CCOC(=O)c1cc2c(cc(C)n2OC)nc1C(=O)OCC | 94.5 to 96.5 °C |
| Cc1nc(C)c(Cl)c(NCc2nccc(SCCCCBr)c2C)n1 | 127 to 128 °C |
| COCCOc1cc(-c2ccccn2)nc(-c2ccccn2)c1 | 105 to 106 °C |
| Cc1nccn1CC1CCc2c(c3ccccc3n2C)/C1=N/O (stereo not given) | 231 to 233 °C |
| Cc1nc2ccc(Sc3cccc4cnccc34)cc2o1 | 140 to 142 °C |
| CCOC(=O)/C=C/c1cnc(-c2ccc(OCc3ccccc3)c(C34CC5CC(CC(C5)C3)C4)c2)cn1 | 145 to 148 °C |
